The experiment concerns the target T1, human TLR8 (Homo sapiens, UniProt Q9NR97).
T1 sequence (Q9NR97 27-1041): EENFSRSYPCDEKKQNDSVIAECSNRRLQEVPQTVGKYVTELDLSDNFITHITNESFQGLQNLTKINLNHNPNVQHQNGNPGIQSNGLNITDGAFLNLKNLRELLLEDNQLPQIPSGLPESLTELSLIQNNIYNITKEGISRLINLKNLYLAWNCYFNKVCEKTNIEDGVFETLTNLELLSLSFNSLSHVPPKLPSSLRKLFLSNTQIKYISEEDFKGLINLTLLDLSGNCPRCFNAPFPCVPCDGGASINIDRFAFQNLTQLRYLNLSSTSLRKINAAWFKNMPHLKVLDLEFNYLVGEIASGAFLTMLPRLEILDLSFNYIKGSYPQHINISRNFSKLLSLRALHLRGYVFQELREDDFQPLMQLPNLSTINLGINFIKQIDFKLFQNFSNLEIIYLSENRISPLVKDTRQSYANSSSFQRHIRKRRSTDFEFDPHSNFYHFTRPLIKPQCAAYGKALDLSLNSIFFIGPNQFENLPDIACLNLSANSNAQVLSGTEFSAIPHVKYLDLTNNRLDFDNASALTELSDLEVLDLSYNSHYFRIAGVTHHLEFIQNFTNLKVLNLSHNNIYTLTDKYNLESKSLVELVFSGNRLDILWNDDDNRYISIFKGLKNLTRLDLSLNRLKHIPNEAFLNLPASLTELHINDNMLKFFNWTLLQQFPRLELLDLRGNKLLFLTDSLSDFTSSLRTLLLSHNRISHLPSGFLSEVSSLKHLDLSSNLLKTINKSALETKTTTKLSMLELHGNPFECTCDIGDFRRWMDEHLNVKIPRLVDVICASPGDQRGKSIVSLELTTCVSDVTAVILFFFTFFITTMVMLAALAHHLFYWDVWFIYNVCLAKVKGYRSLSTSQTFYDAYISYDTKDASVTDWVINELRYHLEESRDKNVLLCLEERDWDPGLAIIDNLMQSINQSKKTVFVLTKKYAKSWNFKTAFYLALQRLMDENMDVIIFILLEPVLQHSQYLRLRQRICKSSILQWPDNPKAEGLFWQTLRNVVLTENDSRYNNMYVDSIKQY
In words: HEK293-Blue-hTLR-8 cells assay (SEAP reporter, R848 stimulation). In kind it is cell-based. Conditions: HEK293-Blue-hTLR8 cells, R848 ligand, 20 hrs; read-out: HEK/hTLR8 IC50. The method, then: The following tests were carried out in order to determine the activity of the compounds of formula (I), (Ia) or (Ib) in HEK293-Blue-hTLR-7/8/9 cells assay.
HEK293-Blue-hTLR-8 Cells Assay:
A stable HEK293-Blue-hTLR-8 cell line was purchased from InvivoGen (Cat. #: hkb-htlr8, San Diego, California, USA). These cells were originally designed for studying the stimulation of human TLR8 by monitoring the activation of NF-κB. A SEAP (secreted embryonic alkaline phosphatase) reporter gene was placed under the control of the IFN-β minimal promoter fused to five NF-κB and AP-1-binding sites. The SEAP was induced by activating NF-κB and AP-1 via stimulating HEK-Blue hTLR8 cells with TLR8 ligands. Therefore the reporter expression was declined by TLR8 antagonist under the stimulation of a ligand, such as R848, for incubation of 20 hrs. The cell culture supernatant SEAP reporter activity was determined using QUANTI-Blue™ kit (Cat. #: rep-qb1, Invivogen, San Diego, Ca., USA) at a wavelength of 640 nm, a detection medium that turns purple or blue in the presence of alkaline phosphatase.
HEK293-Blue-hTLR8 cells were incubated at a density of 250,000˜450,000 cells/mL in a volume of 170 μL in a 96-well plate in Dulbecco's Modified Eagle's medium (DMEM) containing 4.5 g/L glucose, 50 U/mL penicillin, […], […], 2 mM L-glutamine, 10% (v/v) heat-inactivated fetal bovine serum with addition of 20 μL test compound in a serial dilution in the presence of final DMSO at 1% and 10 μL of 60 uM R848 in above DMEM, perform incubation under 37° C. in a CO2 incubator for 20 hrs. Then 20 μL of the supernatant from each well was incubated with 180 μL Quanti-blue substrate solution at 37° C. for 2 hrs and the absorbance was read at 620-655 nm using a spectrophotometer. The signaling pathway that TLR8 activation leads to downstream NF-κB activation has been widely accepted, and therefore similar reporter assay was modified for evaluating TLR8 antagonist.
Turning to `C[C@@H]1CN(c2ccc(C#N)c3ncccc23)C[C@@H]2CCN(c3ccc4c(n3)CNCC4)CCN21` [Example 5, 5-[(4R,10aS)-4-methyl-8-(5,6,7,8-tetrahydro-1,7-naphthyridin-2-yl)-1,3,4,6,7,9,10,10a-octahydropyrazino[1,2-d][1,4]diazepin-2-yl]quinoline-8-carbonitrile], the IC50 amounted to 3.9 nM. As for `C[C@@H]1CN(c2ccc(C#N)c3ncccc23)C[C@@H]2CCN(Cc3ccc(N4CCNCC4)cn3)CCN21` [Example 19, 5-[(4R,10aS)-4-methyl-8-[(5-piperazin-1-yl-2-pyridyl)methyl]-1,3,4,6,7,9,10,10a-octahydropyrazino[1,2-d][1,4]diazepin-2-yl]quinoline-8-carbonitrile], the figure is 10.2 nM; as for `C[C@@H]1CN(c2ccc(C#N)c3ncccc23)C[C@@H]2CCN(c3cncc4c3CCNC4)CCN21` [Example 4, 5-[(4R,10aS)-4-methyl-8-(5,6,7,8-tetrahydro-2,7-naphthyridin-4-yl)-1,3,4,6,7,9,10,10a-octahydropyrazino[1,2-d][1,4]diazepin-2-yl]quinoline-8-carbonitrile], 2.4 nM; as for `C[C@@H]1CN(c2cc(=O)n(C)c3ncccc23)C[C@@H]2CCN(Cc3ccc4c(c3)CNCC4)CCN21` [Example 28, 4-[(4R,10aS)-4-methyl-8-(1,2,3,4-tetrahydroisoquinolin-7-ylmethyl)-1,3,4,6,7,9,10,10a-octahydropyrazino[1,2-d][1,4]diazepin-2-yl]-1-methyl-1,8-naphthyridin-2-one], 51.1 nM. As for `C[C@@H]1CN(c2ccc(C#N)c3ncccc23)C[C@@H]2CCN(Cc3ccc4c(c3)CNCC4)CCN21` [Example 12, 5-[(4R,10aS)-4-methyl-8-(1,2,3,4-tetrahydroisoquinolin-7-ylmethyl)-1,3,4,6,7,9,10,10a-octahydropyrazino[1,2-d][1,4]diazepin-2-yl]quinoline-8-carbonitrile], the figure is 2.7 nM; as for `C[C@@H]1CN(c2ccc(C#N)c3ncccc23)C[C@@H]2CCN(c3ccc4c(n3)CCNC4)CCN21` [Example 6, 5-[(4R,10aS)-4-methyl-8-(5,6,7,8-tetrahydro-1,6-naphthyridin-2-yl)-1,3,4,6,7,9,10,10a-octahydropyrazino[1,2-d][1,4]diazepin-2-yl]quinoline-8-carbonitrile], < 3.2 nM; as for `C[C@@H]1CN(c2ccc(C#N)c3ncccc23)C[C@@H]2CCN(Cc3cncc(N4CCNCC4)c3)CCN21` [Example 16, 5-[(4R,10aS)-4-methyl-8-[(5-piperazin-1-yl-3-pyridyl)methyl]-1,3,4,6,7,9,10,10a-octahydropyrazino[1,2-d][1,4]diazepin-2-yl]quinoline-8-carbonitrile], 12.1 nM. The value for `C[C@@H]1CN(c2ccc(C#N)c3ncccc23)C[C@@H]2CCN(c3ccc([C@H]4CNCCO4)cc3)CCN21` [Example 3, 5-[(4R,10aS)-4-methyl-8-[4-[(2S)-morpholin-2-yl]phenyl]-1,3,4,6,7,9,10,10a-octahydropyrazino[1,2-d][1,4]diazepin-2-yl]quinoline-8-carbonitrile] was 4.8 nM; that for `CO[C@@H]1CN(c2cnc(CN3CC[C@H]4CN(c5ccc(C#N)c6ncccc56)C[C@@H](C)N4CC3)c(F)c2)C[C@H]1N` [Example 24, 5-[(4R,10aS)-8-[[5-[(3R,4R)-3-amino-4-methoxy-pyrrolidin-1-yl]-3-fluoro-2-pyridyl]methyl]-4-methyl-1,3,4,6,7,9,10,10a-octahydropyrazino[1,2-d][1,4]diazepin-2-yl]quinoline-8-carbonitrile] was 7.9 nM; that for `C[C@@H]1CN(c2ccc(C#N)c3ncccc23)C[C@@H]2CCN(Cc3cnc4c(c3)CNCC4)CCN21` [Example 10, 5-[(4R,10aS)-4-methyl-8-(5,6,7,8-tetrahydro-1,6-naphthyridin-3-ylmethyl)-1,3,4,6,7,9,10,10a-octahydropyrazino[1,2-d][1,4]diazepin-2-yl]quinoline-8-carbonitrile] was 5.2 nM. Take `C[C@@H]1CN(c2ccc(C#N)c3ncccc23)C[C@@H]2CCN(Cc3ccc4c(c3)CCNC4)CCN21` [Example 11, 5-[(4R,10aS)-4-methyl-8-(1,2,3,4-tetrahydroisoquinolin-6-ylmethyl)-1,3,4,6,7,9,10,10a-octahydropyrazino[1,2-d][1,4]diazepin-2-yl]quinoline-8-carbonitrile]: the IC50 was 4.2 nM. For `CO[C@@H]1CN(c2cnc(CN3CC[C@H]4CN(c5ccc(C#N)n6ncc(F)c56)C[C@@H](C)N4CC3)c(F)c2)C[C@H]1N` [Example 27, 4-[(4R,10aS)-8-[[5-[(3R,4R)-3-amino-4-methoxy-pyrrolidin-1-yl]-3-fluoro-2-pyridyl]methyl]-4-methyl-1,3,4,6,7,9,10,10a-octahydropyrazino[1,2-d][1,4]diazepin-2-yl]-3-fluoro-pyrazolo[1,5-a]pyridine-7-carbonitrile], the IC50 is 10.1 nM. Turning to `C[C@@H]1CN(c2ccc(C#N)c3ncccc23)C[C@@H]2CCN(Cc3ccc(N4C[C@@H](N)[C@@H](F)C4)cn3)CCN21` [Example 20, 5-[(4R,10aS)-8-[[5-[(3R,4S)-3-amino-4-fluoro-pyrrolidin-1-yl]-2-pyridyl]methyl]-4-methyl-1,3,4,6,7,9,10,10a-octahydropyrazino[1,2-d][1,4]diazepin-2-yl]quinoline-8-carbonitrile], the IC50 was determined as 11 nM. As for `C[C@@H]1CN(c2ccc(C#N)c3ncccc23)C[C@@H]2CCN(Cc3cnc(N4CCNCC4)nc3)CCN21` [Example 14, 5-[(4R,10aS)-4-methyl-8-[(2-piperazin-1-ylpyrimidin-5-yl)methyl]-1,3,4,6,7,9,10,10a-octahydropyrazino[1,2-d][1,4]diazepin-2-yl]quinoline-8-carbonitrile], the IC50 turned out to be 4.9 nM. As for `CO[C@@H]1CN(c2ccc(CN3CC[C@H]4CN(c5ccc(C#N)c6ncccc56)C[C@@H](C)N4CC3)nc2)C[C@H]1N` [Example 22, 5-[(4R,10aS)-8-[[5-[(3R,4R)-3-amino-4-methoxy-pyrrolidin-1-yl]-2-pyridyl]methyl]-4-methyl-1,3,4,6,7,9,10,10a-octahydropyrazino[1,2-d][1,4]diazepin-2-yl]quinoline-8-carbonitrile], the figure is 14.1 nM.

In the case of `C[C@@H]1CN(c2ccc(C#N)c3ncccc23)C[C@@H]2CCN(Cc3cnc(N4CCNCC4)cn3)CCN21` [Example 15, 5-[(4R,10aS)-4-methyl-8-[(5-piperazin-1-ylpyrazin-2-yl)methyl]-1,3,4,6,7,9,10,10a-octahydropyrazino[1,2-d][1,4]diazepin-2-yl]quinoline-8-carbonitrile], the IC50 turned out to be 8.6 nM. In the case of `C[C@@H]1CN(c2ccc(C#N)c3ncccc23)C[C@@H]2CCN(Cc3ncc(N4CCNCC4)cn3)CCN21` [Example 13, 5-[(4R,10aS)-4-methyl-8-[(5-piperazin-1-ylpyrimidin-2-yl)methyl]-1,3,4,6,7,9,10,10a-octahydropyrazino[1,2-d][1,4]diazepin-2-yl]quinoline-8-carbonitrile], the IC50 was 31.7 nM.

The values above are taken from patent publication US12421240B2, “Hydropyrazino[1,2-d][1,4]diazepine compounds for the treatment of autoimmune disease” (Hoffmann-La Roche Inc., priority 2019, dated 2025).
